From patent publication US20100189798A1, “CONTROL OF ERWINIA AMYLOVORA WITH VINYLGLYCINES AND BACTERIA THAT PRODUCE VINYLGLYCINES” (The State of Oregon acting by and through the State Board …, priority 2009, published 2010)

What was measured:
Erwinia amylovora = assay: Erwinia bioassay: culture filtrates or test solutions in agar well, zone of inhibition; assay type: cell-based; conditions: 300 μL per well, 28° C., 48 hours
Experimental: Assays of Culture Filtrates, Live Bacteria, and FVG-Analogs for Antibiosis Activity against Erwinia amylovora and Other Bacterial Species and Strains: The potential antibiosis activities of various P. fluorescens isolates, their culture filtrates, and the FVG analogs prepared as described above were tested against Erwinia amylovora and a number of other bacterial species and strains listed in Table 4. For this purpose, cryovial stocks of the test organisms (including P. fluorescens lines from the stocks described above) were prepared from bacterial cultures grown in LB liquid medium. For this specific experimental purpose, aliquots of these cultures were stored in cryovials at −80° C. in LB medium containing glycerol at a final concentration of 15% (v/v).
Bacterial lawns of test organisms were prepared from cells grown by inoculating 10 μL of the 15% glycerol stocks into 5 mL of liquid LB Medium. The cells were allowed to multiply overnight at 28° C. with shaking (200 rpm). The resulting bacterial suspension was adjusted with water to an optical density of 0.2 at 600 nm (Spectronic® 20 Spectrophotometer; Milton Roy Co., Rochester N.Y.). 300 μL aliquots of the diluted suspension were spread onto the agar surfaces of Petri plates (100×15 mm) containing […] of 925 Minimal Medium (prepared and amended as described below). […]

seeds of grassy weeds = conditions: as disclosed in U.S. patent application Ser. No. 12/567,590; cited from earlier work
[1] = as described in U.S. patent application Ser. No. 12/567,590; cited from earlier work

## NOCC(=O)O [AOA, 2-aminooxyacetic acid]
Erwinia amylovora; AOA solution, pH 6.4
  Growth inhibition of E. amylovora (in words): effective growth inhibitor

## NCCOC=CC(N)C(=O)O (stereo not shown) [AVG, 2-amino-4-aminoethoxybut-3-enoic acid]
Erwinia amylovora; commercial sample of pure AVG-HCl, 3 mM
  Inhibitory effect on growth of E. amylovora (in words): inhibitory effect of AVG on E. amylovora has subsequently been confirmed

## NC(C=CONC=O)C(=O)O (stereo not shown) [FVG, 2-amino-4-formylaminooxybut-3-enoic acid]
Seeds of grassy weeds
  Germination arrest in the seeds of grassy weeds (in words): ability to produce germination arrest
[1]
  Solubility in organic solvents (in words): insoluble or sparingly soluble in organic solvents
